Experimental data as given in PubChem BioAssay (NCI).
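48-hour exposure; five concentrations; linearly interpolated endpoints. GI50 = concentration required for 50% inhibition of growth. TGI: total growth inhibition.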

Assays:
Assay in all cases: NCI tumour cell line growth inhibition, 48 h
[1] = test system: OVCAR-5 ovarian
[2] = test system: MOLT-4 leukemia
[3] = test system: ACHN renal
[4] = test system: MCF7 breast
[5] = test system: A549 NSCLC
[6] = test system: HCT-116 colon
[7] = test system: SNB-19 CNS
[8] = test system: SK-OV-3 ovarian
[9] = test system: HOP-92 NSCLC
[10] = test system: A498 renal

CCCCCCCCCCCCCCCC(=O)N[C@H](/C=C/[C@H](O)CCCCCCCCCCCCC)CO
GI50 [1]: > 100 µM
TGI [1]: > 100 µM
GI50 [2]: > 100 µM
TGI [2]: > 100 µM
GI50 [3]: > 100 µM
TGI [3]: > 100 µM
GI50 [4]: > 100 µM
TGI [4]: > 100 µM
GI50 [5]: > 100 µM
TGI [5]: > 100 µM
GI50 [6]: > 100 µM
TGI [6]: > 100 µM
GI50 [7]: > 100 µM
TGI [7]: > 100 µM
GI50 [8]: > 100 µM
TGI [8]: > 100 µM
GI50 [9]: > 100 µM
TGI [9]: > 100 µM
GI50 [10]: > 100 µM
TGI [10]: > 100 µM

CCOc1ccc2c(C)cc(=O)oc2c1
TGI [1]: > 100 µM
TGI [2]: > 100 µM
TGI [3]: > 100 µM
TGI [4]: > 100 µM
TGI [5]: > 100 µM
TGI [6]: > 100 µM
TGI [7]: > 100 µM
TGI [9]: > 100 µM
TGI [10]: > 100 µM

O=c1c2cccc(F)c2sc2c(N3CCNCC3)nc3ccccc3c12
GI50 [1]: 1.59 µM
TGI [1]: 3.03 µM
GI50 [2]: 0.449 µM
TGI [2]: 1.71 µM
GI50 [3]: 1.19 µM
TGI [3]: 2.43 µM
GI50 [4]: 1.17 µM
TGI [4]: 2.66 µM
GI50 [5]: 0.89 µM
TGI [5]: 2.71 µM
GI50 [6]: 0.931 µM
TGI [6]: 2.16 µM
GI50 [8]: 1.64 µM
TGI [8]: 3.41 µM
GI50 [9]: 1.11 µM
TGI [9]: 2.6 µM
GI50 [10]: 1.92 µM
TGI [10]: 8.51 µM

Cc1cccc2nc3cccc(C(=O)NCCNCCNCCNC(=O)c4cccc5nc6cccc(C)c6nc45)c3nc12
GI50 [1]: 0.12 µM
TGI [1]: 11.1 µM
GI50 [2]: < 0.01 µM
TGI [2]: 14.7 µM
GI50 [3]: < 0.01 µM
TGI [3]: 10.9 µM
GI50 [4]: < 0.01 µM
TGI [4]: > 33 µM
GI50 [6]: < 0.01 µM
TGI [6]: > 35.8 µM
GI50 [7]: < 0.01 µM
TGI [7]: 15.5 µM
GI50 [8]: 0.0933 µM
TGI [8]: 12.8 µM
GI50 [9]: < 0.0317 µM
TGI [9]: 0.519 µM
GI50 [10]: < 0.01 µM
TGI [10]: 0.363 µM

CC(C)=CCC1=C(OCC(=O)O)C(=O)c2ccccc2C1=O
TGI [2]: > 100 µM
TGI [3]: > 100 µM
TGI [4]: 96.3 µM
TGI [5]: > 100 µM
TGI [6]: 66.8 µM
TGI [7]: 92.7 µM
TGI [8]: > 100 µM
TGI [9]: > 100 µM
TGI [10]: > 100 µM

CCCCCc1cc[n+](CC(=O)c2ccc([N+](=O)[O-])cc2)cc1
GI50 [1]: 22 µM
TGI [1]: 97.9 µM
GI50 [3]: 11 µM
TGI [3]: 45.1 µM
GI50 [4]: 3.37 µM
TGI [4]: 13.4 µM
GI50 [5]: 4.39 µM
TGI [5]: 15 µM
GI50 [6]: 3.14 µM
TGI [6]: 11.4 µM
GI50 [7]: 8.01 µM
TGI [7]: > 100 µM
GI50 [8]: 13.1 µM
TGI [8]: 46.3 µM
GI50 [9]: 2.2 µM
TGI [9]: 9.84 µM
GI50 [10]: 10.4 µM
TGI [10]: 24.6 µM

Nc1ccccc1NC(=O)c1ccc(CN2CCC/C(=C\c3ccccn3)C2=O)cc1
GI50 [2]: 1.26 µM
TGI [2]: > 100 µM
GI50 [3]: 1.26 µM
TGI [3]: > 100 µM
GI50 [4]: 0.797 µM
TGI [4]: > 100 µM
GI50 [5]: 2.41 µM
TGI [5]: > 100 µM
GI50 [6]: 0.381 µM
TGI [6]: > 100 µM
GI50 [7]: 3.16 µM
TGI [7]: > 100 µM
GI50 [8]: 1.93 µM
TGI [8]: > 100 µM
GI50 [9]: 0.143 µM
TGI [9]: 2.98 µM
GI50 [10]: 1.09 µM
TGI [10]: 3.47 µM

O=[N+]([O-])c1ccc(Sc2nc(Cl)nc(NC3CCCC3)n2)cc1
GI50 [1]: > 10 µM
TGI [1]: > 10 µM
GI50 [2]: > 10 µM
TGI [2]: > 10 µM
GI50 [3]: > 10 µM
TGI [3]: > 10 µM
GI50 [4]: > 10 µM
TGI [4]: > 10 µM
GI50 [6]: 4.83 µM
TGI [6]: > 10 µM
GI50 [7]: > 10 µM
TGI [7]: > 10 µM
GI50 [8]: > 10 µM
TGI [8]: > 10 µM
GI50 [9]: > 10 µM
TGI [9]: > 10 µM
GI50 [10]: > 10 µM
TGI [10]: > 10 µM
